The values below come from US12551532B2, “Long-acting amylin receptor agonists and uses thereof” (Eli Lilly and Company, priority 2021, dated 2026).

In general, EC50 refers to the concentration needed to bring the measured effect to its halfway point. A lower EC50 goes with a more potent agent.

A short description of assay [1]: DIO rats: Compound II alone and in combination with incretin compounds. The class given is in vivo, Long Evans rats. How it is done:
This study is conducted to investigate the effect of Compound II for diabetes and/or obesity conditions in DIO rats when administered in combination with other incretin compounds, including a GLP-1 agonist (Compound XVII), oxyntomodulin analog (Compound XVIII), and a triagonist of glucagon, GLP-1, and GIP (Compound XIX). Diet-induced obese (DIO) male Long Evans (Envigo) rats, maintained on a calorie rich diet since arrival at Lilly (TD95217; Teklad, Madison, WI), are used in the following studies. Animals are individually housed in a temperature-controlled (24° C.) facility with 12-hour light/dark cycle (lights on 2200) and free access to food (TD95217) and water.
The rats are randomized according to their body weight, so that each experimental group of animals would have similar body weight. The body weights range from 529 to 823 grams.
Each group contains five rats. […] SC injections are made on Days 1, 4, 7, 10 and 13. Body weight and food intake are measured daily throughout the study. Absolute changes in body weight are calculated by subtracting the body weight of the same animal prior to the first injection of molecule.
At the end of the study, blood is collected to measure blood glucose and plasma insulin. Blood glucose is measured by AccuChek glucometers (Roche, Indianapolis, IN). Insulin is measured by ELISA (MSD, Rockville, MD).
All data are presented as mean±SEM of 5 animals per group. Statistical analysis is performed using one-way ANOVA, followed by Tukey's multiple comparison test to compare treatment groups to vehicle group or each other. Significant differences are identified at p<0.05.

Assay [2] deals with T1, hAMY1R (Homo sapiens, UniProt O60894+P30988).
T1 construct: expressed in transfected cells
T1 sequence (O60894 27-148 partner, one chain of several): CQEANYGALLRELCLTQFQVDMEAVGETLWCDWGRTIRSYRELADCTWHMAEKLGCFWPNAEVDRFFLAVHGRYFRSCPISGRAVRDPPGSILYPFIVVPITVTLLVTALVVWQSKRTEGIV
In words: hAMY1R cAMP functional activity (HTRF). The class given is cell-based. As to conditions: ±SE; UMUC3 cells overexpressing hAMY1R; relative EC50. The protocol: (§1) The AMY1 and CT receptors are GPCRs that are functionally coupled to Gas proteins. […] In vitro activity of peptides is measured by the amount of cAMP formed in human AMY1R and CTR overexpressed cells.
Human AMY1R stable cell lines are generated by further transfecting human RAMP1-pCMVpuroPB (T14213) into UMUC3 hCTR clone cells. After selection, the mRNA levels human RAMP1 from different clones are measured to confirm the expression of human AMY1R.
(§2) hAMY1R cells are cultured in MEM 1× (Corning) supplemented with 10% FBS, 1% antibiotic/antimycotic solution, 1 mM sodium pyruvate, 1×MEM NEAA, 1× GlutaMAX-I, 200 μg/mL hygromycin B, and 0.4 μg/mL puromycin. The hCTR cells are cultured in the same medium lacking the puromycin. Cultured cells are grown to 70% confluency and then incubated overnight with fresh medium.
(§3) Peptides diluted in DMSO are added (200 nL/well) in a 1:3 dilution series using ECHO acoustic liquid handler (Beckman). Cultured cells are detached with TrypLE Express (Gibco), resuspended in assay buffer, and 10 μL containing 1200 cells/well (hCTR) or 1500 cells/well (hAMY1R) are dispensed into each well. The plates are incubated at room temperature for 1 hour.
(§4) The amount of intracellular cAMP is quantitated using HTRF technology (Homogeneous Time Resolved Fluorescence; Cisbio) as per vendor instructions. Briefly, 10 μL cAMP-d2 conjugate and 10 μL anti-cAMP-cryptate conjugate in lysis buffer are incubated with the treated cells at room temperature for 60 min. […] The raw data are converted to cAMP amount (pmol/well) using a cAMP standard curve generated for each experiment.
(In general: Time-resolved FRET reads energy transfer from a long-lived donor to a nearby acceptor.)

Assay [3] concerns the target T2, human CT receptors (Homo sapiens, UniProt P30988).
T2 construct: expressed in transfected cells
T2 sequence (P30988 25-474): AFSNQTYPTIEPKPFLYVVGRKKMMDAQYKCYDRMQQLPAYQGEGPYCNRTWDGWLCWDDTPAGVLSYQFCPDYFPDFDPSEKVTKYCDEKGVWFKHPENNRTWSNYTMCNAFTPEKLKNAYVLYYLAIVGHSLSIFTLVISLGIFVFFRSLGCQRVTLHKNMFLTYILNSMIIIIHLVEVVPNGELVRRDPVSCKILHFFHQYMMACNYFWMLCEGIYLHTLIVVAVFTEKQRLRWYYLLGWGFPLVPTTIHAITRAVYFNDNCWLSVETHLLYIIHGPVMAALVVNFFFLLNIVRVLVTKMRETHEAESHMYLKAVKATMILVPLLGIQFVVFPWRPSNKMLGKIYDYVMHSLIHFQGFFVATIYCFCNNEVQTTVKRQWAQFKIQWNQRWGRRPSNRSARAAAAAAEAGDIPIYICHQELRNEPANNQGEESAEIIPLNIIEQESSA
In words: hCTR cAMP functional activity (HTRF). The class given is cell-based. As to conditions: ±SE; UMUC3 cells overexpressing hCTR; relative EC50. The protocol: as §1
Human CT receptors are stably expressed in human urinary bladder cells (UM-UC-3, or UMUC3) under control of a pcDNA expression vector. […] After 20 days under selection, the mRNA levels from different clones are measured to confirm the expression of hCTR. To determine the function of over-expressed hCTR cells, the intracellular cAMP levels in response to salmon calcitonin are measured and compared to the expression of hCTR mRNA in each clone.
as §2, §3, §4

Starred links: 1 amine or outer side, 2 acyl side, 3 side chain; linkers in the order of their positions; H or OH if unused. Positions of bridges follow the written chain, without caps; N, C: chain ends. Non-standard residues stand in square brackets, D forms with d. Residues, ends and D or L forms follow the SMILES beside them. Groups on a side chain read outwards from the residue. *: point of attachment. C20 diacid = O=C(O)CCCCCCCCCCCCCCCCCCC(=O)*; γGlu = O=C(O)[C@H](CCC(=O)[*:2])N[*:1]; αMeF = C[C@](N)(Cc1ccccc1)C(=O)O; NMeD = CN[C@@H](CC(=O)O)C(=O)O; NMeN = CN[C@@H](CC(N)=O)C(=O)O; Orn = NCCC[C@H](N)C(=O)O; AEEA = NCCOCCOCC(=O)O; CH2 = C([*:1])[*:2]

In the case of “Y-Aib-QGTFTSDYSI-αMeL-LDKK((2-[2-(2-Amino-ethoxy)-ethoxy]-acetyl)-(γGlu)-CO-(CH2)18-CO2H)AQ-Aib-AFIEYLLEGGPSSGAPPPS-NH2 (YXQGTFTSDYSIXLDKKAQXAFIEYLLEGGPSSGAPPPS; Aib, αMeL; lipidated Lys; C-terminal amide; SITE 2 X at position 2 is Aib; SITE 13 X at position 13 is alpha-methyl-leucine; MOD_RES 17 K at position 17 is chemically modified by conjugation of the epsilon-amino group of the lysine side chain with (2-[2-(2-amino-ethoxy)-ethoxy]-acetyl)-(gamma-glutamic acid)-CO-(CH2)18-CO2H; SITE 20 X at position 20 is Aib; MOD_RES 39 S at position 39 is amidated) [Compound XIX, triagonist of glucagon, GLP-1, and GIP]”, the “Body Weight Change” value in assay [1] (3 nmol/kg SC Day 1, 4, 7, 10, 13, Day 1 to Day 14, mean±SEM) is -43.28 ± 2.54 g. Further, the “Cumulative Food Intake” value in assay [1] (3 nmol/kg SC every three days, 14-day treatment period, mean±SEM) came to 157.50 ± 10.63 g.

For the compound `CC(C)C[C@H](NC(=O)[C@H](CCCCN)NC(=O)CNC(=O)[C@@H](NC(=O)[C@H](C)NC(=O)[C@@H]1CSCSC[C@H](NC(=O)CC[C@H](N)C(=O)O)C(=O)N[C@@H](CC(N)=O)C(=O)N[C@@H]([C@@H](C)O)C(=O)N[C@@H](C)C(=O)N[C@@H]([C@@H](C)O)C(=O)N1)[C@@H](C)O)C(=O)N[C@@H](C)C(=O)N[C@@H](CCC(=O)O)C(=O)N[C@@H](Cc1ccccc1)C(=O)N[C@@H](CC(C)C)C(=O)N[C@H](C(=O)N[C@@H](CCCNC(=N)N)C(=O)N[C@@H](CO)C(=O)N[C@@H](CO)C(=O)N[C@@H](CC(N)=O)C(=O)N[C@@H](CC(N)=O)C(=O)N[C@@H](Cc1ccccc1)C(=O)NCC(=O)N1CCC[C@H]1C(=O)N[C@@H](CCCCNC(=O)CC[C@H](NC(=O)COCCOCCNC(=O)COCCOCCNC(=O)CCCCCCCCCCCCCCCCCCC(=O)O)C(=O)O)C(=O)N[C@@H](CC(C)C)C(=O)N1CCC[C@H]1C(=O)N1CCC[C@H]1C(=O)N[C@H](C(=O)N[C@@H](CCC(=O)O)C(=O)N[C@H](C(=O)NCC(=O)N[C@@H](CO)C(=O)N[C@@H](CC(N)=O)C(=O)N[C@H](C(=O)N[C@@H](Cc1ccc(O)cc1)C(N)=O)[C@@H](C)O)C(C)C)[C@@H](C)O)C(C)C` [Compound X] (γGlu-CNTATCATGKLAEFLVRSSNNFGPK([γGlu-AEEA-AEEA-C20 diacid])LPPTEVGSNTY-NH2; linker 1-6 via CH2), the figures for the EC50 in assay [2] and in assay [3] were 0.08 ± 0.013 nM and 14 ± 3.32 nM, respectively.

Take `CC(C)C[C@H](NC(=O)[C@H](CCCN)NC(=O)CNC(=O)[C@@H](NC(=O)[C@H](C)NC(=O)[C@@H]1CSCSC[C@H](NC(=O)CC[C@H](N)C(=O)O)C(=O)N[C@@H](CC(N)=O)C(=O)N[C@@H]([C@@H](C)O)C(=O)N[C@@H](C)C(=O)N[C@@H]([C@@H](C)O)C(=O)N1)[C@@H](C)O)C(=O)N[C@@H](C)C(=O)N[C@@H](CCC(=O)O)C(=O)N[C@@](C)(Cc1ccccc1)C(=O)N[C@@H](CC(C)C)C(=O)N[C@H](C(=O)N[C@@H](CCCNC(=N)N)C(=O)N[C@@H](CO)C(=O)N[C@@H](CO)C(=O)N[C@@H](CC(N)=O)C(=O)N(C)[C@@H](CC(N)=O)C(=O)N[C@@H](Cc1ccccc1)C(=O)NCC(=O)N1CCC[C@H]1C(=O)N[C@@H](CCCCN)C(=O)N[C@@H](CC(C)C)C(=O)N1CCC[C@H]1C(=O)N1CCC[C@H]1C(=O)N[C@H](C(=O)N[C@@H](CCC(=O)O)C(=O)N[C@H](C(=O)NCC(=O)N[C@@H](CO)C(=O)N[C@@H](CC(N)=O)C(=O)N[C@H](C(=O)N[C@@H](Cc1ccc(O)cc1)C(N)=O)[C@@H](C)O)C(C)C)[C@@H](C)O)C(C)C` [Compound I, γE-CNTATCATG-Orn-LAE-αMeF-LVRSSN-NMeN-FGPKLPPTEVGSNTY-NH2] (γGlu-CNTATCATG[Orn]LAE[αMeF]LVRSSN[NMeN]FGPKLPPTEVGSNTY-NH2; linker 1-6 via CH2): the EC50 in assay [2] amounted to 0.133 ± 0.012 nM; in assay [3], 18 ± 1.08 nM.

Regarding `CC(C)C[C@H](NC(=O)[C@H](CCCN)NC(=O)CNC(=O)[C@@H](NC(=O)[C@H](C)NC(=O)[C@@H]1CSCSC[C@H](NC(=O)CC[C@H](N)C(=O)O)C(=O)N[C@@H](CC(N)=O)C(=O)N[C@@H]([C@@H](C)O)C(=O)N[C@@H](C)C(=O)N[C@@H]([C@@H](C)O)C(=O)N1)[C@@H](C)O)C(=O)N[C@@H](C)C(=O)N[C@@H](CCC(=O)O)C(=O)N[C@@](C)(Cc1ccccc1)C(=O)N[C@@H](CC(C)C)C(=O)N[C@H](C(=O)N[C@@H](CCCNC(=N)N)C(=O)N[C@@H](CO)C(=O)N[C@@H](CO)C(=O)N[C@@H](CC(N)=O)C(=O)N(C)[C@@H](CC(=O)O)C(=O)N[C@@H](Cc1ccccc1)C(=O)NCC(=O)N1CCC[C@H]1C(=O)N[C@@H](CCCCN)C(=O)N[C@@H](CC(C)C)C(=O)N1CCC[C@H]1C(=O)N1CCC[C@H]1C(=O)N[C@H](C(=O)N[C@@H](CCC(=O)O)C(=O)N[C@H](C(=O)NCC(=O)N[C@@H](CO)C(=O)N[C@@H](CC(N)=O)C(=O)N[C@H](C(=O)N[C@@H](Cc1ccc(O)cc1)C(N)=O)[C@@H](C)O)C(C)C)[C@@H](C)O)C(C)C` [Compound III, γE-CNTATCATG-Orn-LAE-αMeF-LVRSSN-NMeD-FGPKLPPTEVGSNTY-NH2] (γGlu-CNTATCATG[Orn]LAE[αMeF]LVRSSN[NMeD]FGPKLPPTEVGSNTY-NH2; linker 1-6 via CH2), the EC50 in assay [2] came out at 0.156 ± 0.027 nM; in assay [3], 16.3 ± 3.03 nM.

As to `CC(C)C[C@H](NC(=O)[C@H](CCCN)NC(=O)[C@H](CCC(N)=O)NC(=O)[C@@H](NC(=O)[C@H](C)NC(=O)[C@@H]1CSCSC[C@H](NC(=O)CC[C@H](N)C(=O)O)C(=O)N[C@@H](CC(N)=O)C(=O)N[C@@H]([C@@H](C)O)C(=O)N[C@@H](C)C(=O)N[C@@H]([C@@H](C)O)C(=O)N1)[C@@H](C)O)C(=O)N[C@@H](C)C(=O)N[C@@H](CCC(=O)O)C(=O)N[C@@H](Cc1ccccc1)C(=O)N[C@@H](CC(C)C)C(=O)N[C@H](C(=O)N[C@@H](CCCNC(=N)N)C(=O)N[C@@H](CO)C(=O)N[C@@H](CO)C(=O)N[C@@H](CC(N)=O)C(=O)N[C@@H](CC(N)=O)C(=O)N[C@@H](Cc1ccccc1)C(=O)NCC(=O)N1CCC[C@H]1C(=O)N[C@@H](CCCCNC(=O)COCCOCCNC(=O)COCCOCCNC(=O)CC[C@H](NC(=O)CCCCCCCCCCCCCCCCCCC(=O)O)C(=O)O)C(=O)N[C@@H](CC(C)C)C(=O)N1CCC[C@H]1C(=O)N1CCC[C@H]1C(=O)N[C@H](C(=O)N[C@@H](CCC(=O)O)C(=O)N[C@H](C(=O)NCC(=O)N[C@@H](CO)C(=O)N[C@@H](CC(N)=O)C(=O)N[C@H](C(=O)N[C@@H](Cc1ccc(O)cc1)C(N)=O)[C@@H](C)O)C(C)C)[C@@H](C)O)C(C)C` [Compound XII] (γGlu-CNTATCATQ[Orn]LAEFLVRSSNNFGPK([AEEA-AEEA-γGlu-C20 diacid])LPPTEVGSNTY-NH2; linker 1-6 via CH2), the EC50 in assay [2] amounted to 0.113 ± 0.034 nM; in assay [3], 25.9 ± 7.62 nM.
